Values of other authors, collected in patent publication US20220378705A1, “METHOD FOR PREPARING PHARMACEUTICAL COMPOSITIONS CONTAINING AMPHIPHILIC ACTIVE INGREDIENTS” (PHARMADEV SA, priority 2019, published 2022).

Legend:
[1] = octanol-water partition coefficient

SMILES	Log Po/w [1]	pKa
O=C(c1ccccc1)c1ccc2n1CCC2C(=O)O (racemic) [KETOROLAC, 2-amino-2-(hydroxymethyl)propane-1,3-2-amino-2-(hydroxymethyl)-1,3-propanediol(±)-5-benzoyl-2,3-dihydro-1H-pyrrolizine-1-carboxylic acid diol(±)-5-benzoyl-2,3-dihydro-1H-pyrrolizine-1-carboxylic acid]	2.3	3.84
CC(C(=O)O)c1ccc(-c2ccccc2)c(F)c1 (stereo not shown) [FLURBIPROFEN, 2-(3-fluoro-4-phenylphenyl)propanoic acid]	4.16	4.17
Cc1cccc(Nc2ccccc2C(=O)O)c1C [MEFENAMIC ACID, 2-(2,3-dimethylanilino)benzoic acid]	4.20	
O=C(O)c1cccnc1Nc1cccc(C(F)(F)F)c1 [NIFLUMIC ACID]	4.43	4.44
